Reference: US20260275281A1, “COMPOSITIONS AND METHODS FOR DIFFERENTIATING RPE CELLS” (STEMCELL TECHNOLOGIES CANADA INC., priority 2023, published 2026)

Test system: H9-derived RPE cells
Settings: increasing concentrations 10 μM, 25 µM and 50 μM in maturation medium, versus unsupplemented medium
Description: RPE pigmentation levels of cells at different stages of differentiation, but usually day 49 mature (d) RPE, could be analysed by a melanin content assay. […] A total of 4×10^5 RPE were added per well of a 96 well u bottom plate and centrifuged at 500×g for 3 minutes. Once the supernatant was removed, cells were resuspended in 100 μL of D-PBS and transferred to a 96 well tissue culture plate. RPE were centrifuged at 300×g for 3 minutes and absorbance was measured at 490 nm. Melanin content was calculated relative to the synthetic standard.

Question: How did the “melanogenesis (brightfield microscopy and melanin content assay)” value turn out when ferric ammonium citrate was run?
Answer: increasing levels of melanogenesis
